Results on four compounds are retold here after ChEMBL document CHEMBL1150047, “New sesquiterpene quinols from a Micronesian sponge, Aka sp” (J Nat Prod, 2003).

In test [1] the target is Cyclin-dependent kinase 4/cyclin D1 (Homo sapiens, UniProt P11802). Kind of test: Inhibition of CDK4/Cyclin D1 complex formation.
The target of test [2] is Cyclin-dependent kinase 4/cyclin D1 (Homo sapiens) (UniProt P11802+P24385). Kind of test: Inhibition of CDK4/Cyclin D1 complex formation at 10 ug/mL. Type of test: protein-complex assay.

Where a name gives a salt, the structure may show the parent alone. The source made the active and inactive calls. The rule behind the calls is not given here.

Sequence of Cyclin-dependent kinase 4/cyclin D1 (P11802 whole entry): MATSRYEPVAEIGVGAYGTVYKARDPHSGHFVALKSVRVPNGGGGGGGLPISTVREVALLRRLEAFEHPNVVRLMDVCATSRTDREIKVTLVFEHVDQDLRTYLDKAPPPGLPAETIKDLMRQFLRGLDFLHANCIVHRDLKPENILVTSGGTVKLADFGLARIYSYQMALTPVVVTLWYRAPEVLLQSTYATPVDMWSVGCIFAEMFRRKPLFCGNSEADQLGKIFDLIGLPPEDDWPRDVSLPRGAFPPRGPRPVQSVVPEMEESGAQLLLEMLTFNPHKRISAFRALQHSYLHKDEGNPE
Sequence of Cyclin-dependent kinase 4/cyclin D1 (P24385 whole entry, further chain): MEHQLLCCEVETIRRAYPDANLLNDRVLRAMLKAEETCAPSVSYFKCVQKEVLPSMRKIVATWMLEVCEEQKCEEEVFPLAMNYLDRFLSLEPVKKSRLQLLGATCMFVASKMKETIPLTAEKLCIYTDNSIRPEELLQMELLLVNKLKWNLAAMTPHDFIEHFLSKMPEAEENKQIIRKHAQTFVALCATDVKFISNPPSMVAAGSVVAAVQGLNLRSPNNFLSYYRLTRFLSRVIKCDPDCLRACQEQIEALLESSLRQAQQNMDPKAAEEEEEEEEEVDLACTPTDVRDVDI

For `CC1=CC[C@H]2C(C)(C)CCC[C@]2(C)[C@H]1Cc1cc(O)c(O)c(C=O)c1OS(=O)(=O)O` [SIPHONODICTYAL C], 19.5 µM corresponded to half-maximal inhibition in test [1] (IC50). Take `CC(CC[C@@H](C)[C@H]1CC[C@H]2[C@@H]3C[C@H](OS(=O)(=O)O)[C@H]4C[C@H](OS(=O)(=O)O)[C@@H](OS(=O)(=O)O)C[C@]4(C)[C@H]3CC[C@]12C)C(C)(C)C` (some centres undefined) [HALISTANOL SULFATE]: half-maximal inhibition in test [1] (IC50) required 12.6 µM. This IC50 lies about 1.5-fold lower than the previous one. In the case of `COCc1cc(O)c(O)c2c1[C@@]1(C)CC[C@H]3C(C)(C)CCC[C@]3(C)[C@H]1C2`, in test [2], the outcome was inactive. On the same count and under the same terms, next, `CC1(C)CCC[C@]2(C)[C@@H](Cc3c(O)ccc(O)c3C=O)[C@](C)(O)CC[C@@H]12`: “inactive”.
